Data from patent publication US5783575A, “Antagonists, their preparation and use” (Novo Nordisk A/S, priority 1994, dated 1998).
Read-outs that look alike come from different tables or passages of the source. Blank lines part the entries; values can stand above or below the compound they belong to.

What was measured:
NMDA-induced responses = settings: a number of preparations; cited from earlier work
mGluR1a [1] = target: T1, mGluR1a (Rattus norvegicus, UniProt P23385); settings: BHK cells expressing mGluR1a, Thomsen and Suzdak 1993; cited from earlier work
T1 construct: expressed in transfected cells; host or cells: BHK 570 (baby hamster kidney) cells

mGluR1a [2] = target: T1, mGluR1a; settings: competitive antagonist, Thomsen and Suzdak 1993; cited from earlier work
GABAA = settings: neurones, nucleus of the Solitary tract; cited from earlier work
[3] = test system: responses evoked by the ionotropic glutamate receptor agonist, AMPA; settings: Mori-Okamoto et al. 1993; cited from earlier work
currents evoked by AMPA = settings: neurones, nucleus of the Solitary tract; cited from earlier work
mGluR1a [4] = target: T1, mGluR1a; assay: Inhibition of PI-hydrolysis in BHK 570 cells expressing mGluR1a receptors (antagonist activity vs 10 μM glutamate); type: cell-based
mGluR1a [5] = target: T1, mGluR1a; assay: Testing for non competitiveness: mGluR1a-mediated PI-hydrolysis, glutamate dose-response with and without antagonist; type: cell-based; settings: for effect on maximal response for glutamate / effect on the potency of glutamate / pharmacological profile: BHK cells expressing mGluR1a; for Emax: basal subtracted
mGluR1a [6] = target: T1, mGluR1a; assay: [3H]Glutamate binding to mGluR1a; settings: BHK cells expressing mGluR1a
Experimental: Membranes prepared from BHK cells expressing mGluR1a were prepared as described (Thomsen, C. et al. (1993), Brain Res. 619, 22-28). […] IC50 values were calculated by a non-linear regression analysis using the GraphPad-Prism program (I.S.I., Philadelphia). Inhibitory constants (Ki) were calculated from the IC50 values using the equation: […]

Bz = assay: Affinity for Bz receptor (Table 3); type: binding
TCP = assay: Affinity for TCP receptor (Table 3); type: binding
CNQX = assay: Affinity for CNQX receptor (Table 3); type: binding
CPP = assay: Affinity for CPP receptor (Table 3); type: binding
AMPA = assay: Affinity for AMPA receptor (Table 3); type: binding
KAIN = assay: Affinity for KAIN receptor (Table 3); type: binding
[7] = test system: metabotropic glutamate receptor at the subtypes mGluR1 and mGluR5; settings: Thomsen and Suzdak 1993; cited from earlier work
mGluR1/mGluR5 = settings: Mori-Okamoto et al. 1993; cited from earlier work
[8] = test system: metabotropic glutamate receptor; settings: cited from earlier work
mGluR1α = settings: 1 mM, BHK cells expressing mGluR1α; cited from earlier work
control BHK cells = settings: 1 mM; cited from earlier work
[9] = test system: release of dopamine in the rat brain; settings: Sacaan et al. 1992; cited from earlier work
MCAO model in mice = settings: Chiamulera et al. 1992; cited from earlier work
nerve cell cultures = settings: Koh et al. 1991; cited from earlier work
[10] = read-out: response to glutamate relative to the maximal response evoked by 300 μM glutamate, antagonist 10 μM, glutamate 0
[11] = read-out: response to glutamate relative to the maximal response evoked by 300 μM glutamate, antagonist 10 μM, glutamate 3
[12] = read-out: response to glutamate relative to the maximal response evoked by 300 μM glutamate, antagonist 10 μM, glutamate 10
[13] = read-out: response to glutamate relative to the maximal response evoked by 300 μM glutamate, antagonist 10 μM, glutamate 30
[14] = read-out: response to glutamate relative to the maximal response evoked by 300 μM glutamate, antagonist 10 μM, glutamate 100
[15] = read-out: response to glutamate relative to the maximal response evoked by 300 μM glutamate, antagonist 10 μM, glutamate 300

T1 sequence (P23385 19-1199): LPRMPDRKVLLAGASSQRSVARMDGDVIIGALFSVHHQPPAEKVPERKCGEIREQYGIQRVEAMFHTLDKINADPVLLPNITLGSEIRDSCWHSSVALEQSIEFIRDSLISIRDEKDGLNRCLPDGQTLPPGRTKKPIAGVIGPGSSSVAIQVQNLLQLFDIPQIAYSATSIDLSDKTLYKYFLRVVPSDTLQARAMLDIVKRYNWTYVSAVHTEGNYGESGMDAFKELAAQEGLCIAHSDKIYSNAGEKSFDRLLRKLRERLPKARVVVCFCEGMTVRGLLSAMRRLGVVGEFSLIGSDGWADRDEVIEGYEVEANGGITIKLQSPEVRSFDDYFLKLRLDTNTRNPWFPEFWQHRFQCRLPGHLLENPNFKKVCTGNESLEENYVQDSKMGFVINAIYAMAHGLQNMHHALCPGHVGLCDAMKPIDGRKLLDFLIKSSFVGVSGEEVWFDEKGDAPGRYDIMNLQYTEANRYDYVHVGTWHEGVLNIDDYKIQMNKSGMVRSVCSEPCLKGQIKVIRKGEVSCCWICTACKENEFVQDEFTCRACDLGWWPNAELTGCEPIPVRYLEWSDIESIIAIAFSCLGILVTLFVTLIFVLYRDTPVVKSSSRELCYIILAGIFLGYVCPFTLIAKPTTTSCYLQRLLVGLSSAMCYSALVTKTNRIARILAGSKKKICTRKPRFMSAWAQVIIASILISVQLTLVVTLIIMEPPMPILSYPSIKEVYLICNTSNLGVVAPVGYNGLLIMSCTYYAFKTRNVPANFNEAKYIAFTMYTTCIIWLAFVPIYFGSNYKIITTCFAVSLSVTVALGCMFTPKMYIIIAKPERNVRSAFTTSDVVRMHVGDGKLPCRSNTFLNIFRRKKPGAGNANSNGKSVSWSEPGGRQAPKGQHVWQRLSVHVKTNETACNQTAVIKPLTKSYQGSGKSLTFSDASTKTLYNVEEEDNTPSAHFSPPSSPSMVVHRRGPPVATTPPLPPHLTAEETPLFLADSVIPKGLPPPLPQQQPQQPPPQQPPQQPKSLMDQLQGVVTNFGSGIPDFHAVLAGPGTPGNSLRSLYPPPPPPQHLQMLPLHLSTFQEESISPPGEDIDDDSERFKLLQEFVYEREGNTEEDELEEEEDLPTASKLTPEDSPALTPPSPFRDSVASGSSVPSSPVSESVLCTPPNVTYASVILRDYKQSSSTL

SMILES: N[C@@]1(C(=O)O)CC[C@@H](C(=O)O)C1 (relative stereo) [(±)-trans-ACPD]
effect on NMDA-induced responses (NMDA-induced responses): enhanced

SMILES: NC(C(=O)O)c1ccc(C(=O)O)c(O)c1 (stereo not shown) [4-carboxy-3-hydroxyphenylglycine]
effect on maximal response to glutamate (mGluR1a [1]): not affected
effect on potency of glutamate to stimulate PI-hydrolysis (mGluR1a [1]): decreased
displacement of [3H]glutamate binding (mGluR1a [2]): displaced [^3 H]glutamate binding from mGluR1a with an affinity which was similar to the functional antagonist potency

SMILES: N[C@@]1(C(=O)O)CC[C@@H](C(=O)O)C1 [(1S,3R)-ACPD]
effect on GABAA-mediated currents (GABAA): attenuated
effect on responses evoked by AMPA [3]: suppress responses evoked by the ionotropic glutamate receptor agonist, AMPA
effect on currents evoked by AMPA (currents evoked by AMPA): potentiated

IC50 (mGluR1a [4]): 2.2 µM
SMILES: CCOC(=O)C(C#N)=Cc1c(Cl)n(Cc2ccccc2)c2ccccc12 [Compound 1a, Ethyl 2-cyano-3-(1-benzyl-2-chloro-3-indolyl)acrylate]

effect on the potency of glutamate (mGluR1a [5]): did not affect the potency of glutamate
pharmacological profile (mGluR1a [5]): non-competitive antagonists
Emax (mGluR1a [5]; [10]): 2%
Emax (mGluR1a [5]; [11]): 5%
Emax (mGluR1a [5]; [12]): 16%
Emax (mGluR1a [5]; [13]): 53%
Emax (mGluR1a [5]; [14]): 75%
Emax (mGluR1a [5]; [15]): 77%
displacement of [3H]glutamate binding (mGluR1a [6]): did not displace
IC50 (mGluR1a [4]): 10 µM
SMILES: O=C(O)c1cc2c3ccccc3n(Cc3ccccc3)c2nc1N1CCOCC1 [Compound 3b, 9-Benzyl-2-morpholinopyridino[2,3-b]indole-3-carboxylic acid]
effect on maximal response for glutamate (mGluR1a [5]): dose-dependently decreased the maximal response for glutamate

IC50 (Bz): 471 µM
effect on the potency of glutamate (mGluR1a [5]): did not affect the potency of glutamate
pharmacological profile (mGluR1a [5]): non-competitive antagonists
Emax (mGluR1a [5]; [10]): 2%
Emax (mGluR1a [5]; [11]): 5%
Emax (mGluR1a [5]; [12]): 35%
Emax (mGluR1a [5]; [13]): 65%
Emax (mGluR1a [5]; [14]): 92%
Emax (mGluR1a [5]; [15]): 89%
Emax (mGluR1a [5]; read-out: response to glutamate relative to the maximal response evoked by 300 μM glutamate, antagonist 30 μM, glutamate 0): 2%
Emax (mGluR1a [5]; read-out: response to glutamate relative to the maximal response evoked by 300 μM glutamate, antagonist 30 μM, glutamate 3): 4%
Emax (mGluR1a [5]; read-out: response to glutamate relative to the maximal response evoked by 300 μM glutamate, antagonist 30 μM, glutamate 10): 22%
Emax (mGluR1a [5]; read-out: response to glutamate relative to the maximal response evoked by 300 μM glutamate, antagonist 30 μM, glutamate 30): 58%
Emax (mGluR1a [5]; read-out: response to glutamate relative to the maximal response evoked by 300 μM glutamate, antagonist 30 μM, glutamate 100): 64%
Emax (mGluR1a [5]; read-out: response to glutamate relative to the maximal response evoked by 300 μM glutamate, antagonist 30 μM, glutamate 300): 66%
Emax (mGluR1a [5]; read-out: response to glutamate relative to the maximal response evoked by 300 μM glutamate, antagonist 100 μM, glutamate 0): 5%
Emax (mGluR1a [5]; read-out: response to glutamate relative to the maximal response evoked by 300 μM glutamate, antagonist 100 μM, glutamate 3): 2%
Emax (mGluR1a [5]; read-out: response to glutamate relative to the maximal response evoked by 300 μM glutamate, antagonist 100 μM, glutamate 10): 1%
Emax (mGluR1a [5]; read-out: response to glutamate relative to the maximal response evoked by 300 μM glutamate, antagonist 100 μM, glutamate 30): 24%
Emax (mGluR1a [5]; read-out: response to glutamate relative to the maximal response evoked by 300 μM glutamate, antagonist 100 μM, glutamate 100): 34%
Emax (mGluR1a [5]; read-out: response to glutamate relative to the maximal response evoked by 300 μM glutamate, antagonist 100 μM, glutamate 300): 38%
displacement of [3H]glutamate binding (mGluR1a [6]): did not displace
IC50 (mGluR1a [4]): 21 µM
receptor selectivity for mGluR1a (mGluR1a [4]; based on Table 3, criterion 5-fold more potent at mGluR1a): considered selective for mGluR1a
IC50 (TCP): > 980 µM
IC50 (CNQX): > 980 µM
IC50 (CPP): 300 µM
IC50 (AMPA): > 980 µM
IC50 (KAIN): 870 µM
SMILES: O=C(O)c1cc2c3ccccc3n(Cc3ccccc3)c2s1 [Compound 8, 8-Benzylthieno[2,3-b]indole-2-carboxylic acid]
effect on maximal response for glutamate (mGluR1a [5]): dose-dependently decreased the maximal response for glutamate

IC50 (mGluR1a [4]): 9 µM
SMILES: c1ccc(Cn2c3ccccc3c3cc(-c4nnn[nH]4)sc32)cc1 [Compound 25, 8-Benzyl-2-(5-tetrazolyl)thieno[2,3-b]indole]

IC50 (mGluR1a [4]): 5.3 µM
SMILES: Cn1c2ccccc2c2cc(C(=O)N3CCOCC3)sc21 [Compound 27, 8-Methyl-2-morpholinocarbonylthieno[2,3-b]indole]

IC50 (mGluR1a [4]): 36 µM
SMILES: CN1CCN(C(=O)c2cc3c4ccccc4n(C)c3s2)CC1 [Compound 31, 8-Methyl-2-(4-methyl-1-piperazinylcarbonyl)thieno[2,3-b]indole]

IC50 (mGluR1a [4]): 7.2 µM
SMILES: Cn1c2ccc(Cl)cc2c2cc(C(=O)O)sc21 [Compound 54, 5-Chloro-8-methylthieno[2,3-b]indole-2-carboxylic acid]

SMILES: N[C@H](C(=O)O)c1ccc(C(=O)O)c(O)c1 [Compound S-4C3HPG, S-4-carboxy-3-hydroxyphenyl glycine]
antagonism of trans ACPD stimulated phosphoinositide hydrolysis [7]: antagonise trans ACPD stimulated phosphoinositide hydrolysis

SMILES: N[C@H](C(=O)O)c1ccc(C(=O)O)cc1 [Compound S-4CPG, S-4-carboxyphenyl glycine]
antagonism of trans ACPD stimulated phosphoinositide hydrolysis [7]: antagonise trans ACPD stimulated phosphoinositide hydrolysis

SMILES: N[C@@H](CP(=O)(O)O)C(=O)O [L-AP3, L-2-amino-3-phosphonopropionic acid]
antagonism of mGluR1/mGluR5 (mGluR1/mGluR5): antagonist
activity at metabotropic receptors [8]: partial agonist

SMILES: C[C@@](N)(C(=O)O)c1ccc(C(=O)O)cc1 [S-MCPG, S-alpha-methyl-4-carboxyphenyl glycine]
antagonism of trans ACPD stimulated phosphoinositide hydrolysis [7]: antagonise trans ACPD stimulated phosphoinositide hydrolysis

SMILES: N[C@@H](CCC(=O)O)C(=O)O [glutamate, L-glutamate]
increase over basal PI-hydrolysis (mGluR1α): 6-8 fold

SMILES: NC(C(=O)O)c1cc(O)no1 (stereo not shown) [ibotenate]
agonism on the metabotropic glutamate receptor [8]: non-selective agonists

SMILES: C=C(C)[C@H]1CN[C@H](C(=O)O)[C@H]1CC(=O)O [kainate]
effect on metabotropic glutamate receptors ([8]; selective ionotropic glutamate receptor agonists): little effect

SMILES: N[C@@H](Cn1oc(=O)[nH]c1=O)C(=O)O [quisqualate]
stimulation of PI-hydrolysis (control BHK cells): no stimulation
agonism on the metabotropic glutamate receptor [8]: non-selective agonists
increase over basal PI-hydrolysis (mGluR1α): 6-8 fold

SMILES: N[C@@]1(C(=O)O)CC[C@@H](C(=O)O)C1 [trans-ACPD, trans 1S,3R-1-aminocyclopentane-1,3-dicarboxylicacid]
effect on release of dopamine [9]: increase release of dopamine
neuroprotection (MCAO model in mice): neuroprotective
inhibition of NMDA induced neurotoxicity (nerve cell cultures): inhibit NMDA induced neurotoxicity
